*1 amine or outer side, *2 acyl side, *3 side chain or, on linkers, in order; H or OH if unused. Where a SMILES comes first, the peptide text is derived from it. Bridges are numbered along the chain shown (N, C = ends). [ ]: non-standard residue; d: D form. Maleimide(3,4-diyl) = O=C1NC(=O)C([*:2])=C1[*:1]; hCys = N[C@@H](CCS)C(=O)O
How the values were obtained:
[1] = Two-component bis-thiol stapling with 2,3-dibromomaleimide (200 uM), TCEP (100 uM); thioether formation followed at 395 nm; details: the molecule shown is the open-chain precursor, 50 mM aq. phosphate buffer pH 6.0, 0.1 mM, 20.0 °C, 1.0 h
[2] = Two-component i,i+4 bis-thiol stapling: TCEP (1.1 eq) reduction for 1 h, then 2,3-dibromomaleimide (1.1 eq) for 1 h; two S-C(maleimide) thioether bonds formed; details: the molecule shown is the open-chain precursor, MeCN/50 mM aq. ammonium acetate pH 7.4 (1:1), 3.3 mM, 14 steps
[3] = circular dichroism; details: 10 mM sodium phosphate; pH 7.2; 25 °C; 250 uM

CC(=O)N[C@@H](CCSC1=C(Br)C(=O)NC1=O)C(=O)N[C@@H](C)C(=O)N[C@@H](C)C(=O)N[C@@H](C)C(=O)N[C@@H](CS)C(N)=O [Ac-hCys-Ala-Ala-Ala-Cys-NH2]
ring closure, halflife ([1]; 20-membered ring): 11 min | ring closure, overall yield ([2]; 20-membered ring): 18%

CC(=O)N[C@H]1CSC2=C(SC[C@H](C(N)=O)NC(=O)[C@H](C)NC(=O)[C@H](C)NC(=O)[C@H](C)NC1=O)C(=O)NC2=O
helicity [3]: 17 rel %

CC(=O)N[C@@H]1CSC2=C(SC[C@@H](C(N)=O)NC(=O)[C@H](C)NC(=O)[C@H](C)NC(=O)[C@H](C)NC1=O)C(=O)NC2=O
helicity [3]: 28 rel %

CC(=O)N[C@H]1CCSC2=C(SC[C@@H](C(N)=O)NC(=O)[C@H](C)NC(=O)[C@H](C)NC(=O)[C@H](C)NC1=O)C(=O)NC2=O (Ac-[hCys]AAAC-NH2; linker 1-5 via Maleimide(3,4-diyl))
helicity [3]: 11 rel %

CC(=O)N[C@H](CSC1=C(Br)C(=O)NC1=O)C(=O)N[C@@H](C)C(=O)N[C@@H](C)C(=O)N[C@@H](C)C(=O)N[C@@H](CS)C(N)=O [Ac-D-Cys-Ala-Ala-Ala-Cys-NH2]
ring closure, halflife ([1]; 19-membered ring): 8 min | ring closure, overall yield ([2]; 19-membered ring): 7%

CC(=O)N[C@@H](CCSC1=C(Br)C(=O)NC1=O)C(=O)N[C@@H](C)C(=O)N[C@@H](C)C(=O)N[C@@H](C)C(=O)N[C@@H](CCS)C(N)=O [Ac-hCys-Ala-Ala-Ala-hCys-NH2]
ring closure, halflife ([1]; 21-membered ring): 9 min | ring closure, overall yield ([2]; 21-membered ring): 17%

CC(=O)N[C@@H](CSC1=C(Br)C(=O)NC1=O)C(=O)N[C@@H](C)C(=O)N[C@@H](C)C(=O)N[C@@H](C)C(=O)N[C@@H](CCS)C(N)=O [Ac-Cys-Ala-Ala-Ala-hCys-NH2]
ring closure, halflife ([1]; 20-membered ring): 13 min | ring closure, overall yield ([2]; 20-membered ring): 4%

CC(=O)N[C@@H](CSC1=C(Br)C(=O)NC1=O)C(=O)N[C@@H](C)C(=O)N[C@@H](C)C(=O)N[C@@H](C)C(=O)N[C@H](CS)C(N)=O [Ac-Cys-Ala-Ala-Ala-D-Cys-NH2]
ring closure, halflife ([1]; 19-membered ring): 8 min | ring closure, overall yield ([2]; 19-membered ring): 21%

CC(=O)N[C@H]1CCSC2=C(SCC[C@@H](C(N)=O)NC(=O)[C@H](C)NC(=O)[C@H](C)NC(=O)[C@H](C)NC1=O)C(=O)NC2=O (Ac-[hCys]AAA[hCys]-NH2; linker 1-5 via Maleimide(3,4-diyl))
helicity [3]: 13 rel %

CC(=O)N[C@H](CSC1=C(Br)C(=O)NC1=O)C(=O)N[C@@H](C)C(=O)N[C@@H](C)C(=O)N[C@@H](C)C(=O)N[C@H](CS)C(N)=O [Ac-D-Cys-Ala-Ala-Ala-D-Cys-NH2]
ring closure, halflife ([1]; 19-membered ring): 10 min | ring closure, overall yield ([2]; 19-membered ring): 11%

CC(=O)N[C@@H](CSC1=C(Br)C(=O)NC1=O)C(=O)N[C@@H](C)C(=O)N[C@@H](C)C(=O)N[C@@H](C)C(=O)N[C@@H](CS)C(N)=O [Ac-Cys-Ala-Ala-Ala-Cys-NH2]
ring closure, halflife ([1]; 19-membered ring): 8 min | ring closure, overall yield ([2]; 19-membered ring): 21%

CC(=O)N[C@H]1CSC2=C(SC[C@@H](C(N)=O)NC(=O)[C@H](C)NC(=O)[C@H](C)NC(=O)[C@H](C)NC1=O)C(=O)NC2=O
helicity [3]: 25 rel %

CC(=O)N[C@H]1CSC2=C(SCC[C@@H](C(N)=O)NC(=O)[C@H](C)NC(=O)[C@H](C)NC(=O)[C@H](C)NC1=O)C(=O)NC2=O (Ac-CAAA[hCys]-NH2; linker 1-5 via Maleimide(3,4-diyl))
helicity [3]: 48 rel %

CC(=O)N[C@@H]1CSC2=C(SC[C@H](C(N)=O)NC(=O)[C@H](C)NC(=O)[C@H](C)NC(=O)[C@H](C)NC1=O)C(=O)NC2=O
helicity [3]: 13 rel %
